Source: ChEMBL document CHEMBL5365505, “Targeted Degradation of CDK4/6: An Innovative Approach to Overcoming Cancer Drug Resistance” (ACS Med Chem Lett, 2023)
Values joined by “and” are separate entries in the source; they are usually repeats but may differ in a detail not shown here. Equal entries are not always repeated.

Experiments:
Format in all cases: ADME, organism-based
Conditions in all cases: in vivo
[1] = Half life in C57BL/6 mouse at 10 mg/kg, po measured for 24 hrs by LC/MS/MS analysis
[2] = Cmax in C57BL/6 mouse at 10 mg/kg, po measured for 24 hrs by LC/MS/MS analysis; design: time 24 hrs, dose 10 mg/kg, route po
[3] = Tmax in C57BL/6 mouse at 10 mg/kg, po measured for 24 hrs by LC/MS/MS analysis
[4] = AUClast in C57BL/6 mouse at 10 mg/kg, po measured for 24 hrs by LC/MS/MS analysis; design: dose 10 mg/kg, time 24 hrs, route po
[5] = AUC (infinity) in C57BL/6 mouse at 10 mg/kg, po measured for 24 hrs by LC/MS/MS analysis; design: dose 10 mg/kg, time 24 hrs, route po
[6] = AUC (infinity) in C57BL/6 mouse at 25 mg/kg, ip measured for 24 hrs by LC/MS/MS analysis; design: time 24 hrs, dose 25 mg/kg, route ip
[7] = Tmax in C57BL/6 mouse at 25 mg/kg, ip measured for 24 hrs by LC/MS/MS analysis
[8] = AUClast in C57BL/6 mouse at 25 mg/kg, ip measured for 24 hrs by LC/MS/MS analysis; design: dose 25 mg/kg, time 24 hrs, route ip
[9] = Cmax in C57BL/6 mouse at 25 mg/kg, ip measured for 24 hrs by LC/MS/MS analysis; design: dose 25 mg/kg, time 24 hrs, route ip
[10] = Half life in C57BL/6 mouse at 25 mg/kg, ip measured for 24 hrs by LC/MS/MS analysis

Q: Which results are given for CC(=O)c1c(C)c2cnc(Nc3ccc(N4CCN(CC5CCN(c6ccc7c(c6)C(=O)N(C6CCC(=O)NC6=O)C7=O)CC5)CC4)cn3)nc2n(C2CCCC2)c1=O (stereo not given)?
A: half-life [1]: 129 min; Cmax [2]: 724 ng/mL; Tmax [3]: 1 h; AUC(0-t) at 24 h [4]: 2470 ng·h/mL; AUC(0-inf) [5]: 2730 ng·h/mL

Q: With CC(=O)c1c(C)c2cnc(Nc3ccc(N4CCN(CCCCC(=O)N[C@H](C(=O)N5C[C@H](O)C[C@H]5C(=O)N[C@@H](C)c5ccc(-c6scnc6C)cc5)C(C)(C)C)CC4)cn3)nc2n(C2CCCC2)c1=O as the molecule, how does the AUC(0-inf) [6] read?
A: Its AUC(0-inf) is 9230 ng·h/mL.

Q: What about the Tmax [7] of the same molecule?
A: Its Tmax is 34.8 min.

Q: And the AUC(0-t) at 24 h [8]?
A: Its AUC(0-t) at 24 h is 8210 ng·h/mL.

Q: And the Cmax [9]?
A: The Cmax was 2550 ng/mL and 2.6 µM.

Q: And the half-life [10]?
A: The half-life was 420 min.
